Experimental findings from paper PMC10755736, “Modulating Liquid–Liquid Phase Separation of Nck Adaptor Protein against Enteropathogenic Escherichia coli Infection” (ACS Central Science, 2023) are described below.

Entries after “also recorded” stand apart in the source; their conditions may differ. Non-standard residues stand in square brackets, D forms with d. Residues, ends and D or L forms follow the SMILES beside them. *: point of attachment. Biotin = O=C1N[C@H]2[C@H](CS[C@H]2CCCCC(=O)*)N1; Benzoyl(4-SO2F) = O=C(c1ccc(S(=O)(=O)F)cc1)*; pY = N[C@@H](Cc1ccc(OP(=O)(O)O)cc1)C(=O)O; Dap = NC[C@H](N)C(=O)O

Assay [1] concerns the target T1, Nck (Homo sapiens, UniProt P16333).
T1 construct: GST (followed by PreScission/HRV 3C site) (N, cleaved yes); made in house; host or cells: E. coli BL21(DE3)
In words: Reaction kinetics of p1 crosslinking with Nck (SDS-PAGE). Format: binding. As to conditions: 1:1 reaction, p1 5 μM, Nck 5 μM, PBS, 37 °C. Here is the method:
ether and purified by reverse-phase HPLC on a C18 column using acetonitrile/H2O (with 0.1% TFA) gradient on a reversed-phase C18 column, confirmed by MALDI-TOF MS analysis (Bruker, USA).
Pure peptides were lyophilized.
Crosslinking of Peptides with Nck in vitro […]
After incubation, 5´ loading buffer was added into the solution and heated at 100 °C for 10 min. These samples were then separated by 12% SDS-PAGE gel, which contained 10% glycerol instead of DI water, followed by staining with Coomassie brilliant blue. Western blot was then performed using the primary antibody specific for Nck or biotin and the secondary antibody.
Mass Spectrometric Analysis
The reaction mixture of Nck and p1 were digested with trypsin. Digested peptides were analyzed with an in-line EASY-spray source and nano-LC UltiMate 3000 high-performance liquid chromatography system (Thermo Fisher, USA) interfaced with an Elite mass spectrometer (Thermo Fisher, USA). The eluted peptides were detected by the Elite mass spectrometer, which was operated in data-dependent mode with one full MS scan at R = 60,000 (m/z = 200) mass, followed by MS/MS scans. Mass spectrometry raw data was searched by Maxquant.
Protein–Peptide Conjugation Reactions and the Binding Assay
The reaction solutions were then thermally denatured in the presence of loading dye to stop the reactions. […]

Assay [2] addresses T1, Nck. The assay can be described thus: Crosslinking of peptides with recombinant Nck in vitro (SDS-PAGE, Western blotting). Format: binding. As to conditions: PBS, 1 h. The source says:
Although peptide Y474 can block Nck-mediated LLPS, the requirement of a high concentration of the blocker peptide is hard to achieve inside the cell. […] The side chains of the Nck lysine residues are pointing toward the residues at pY+1 and pY+2 positions with distances of only 4 to 6 Å. This unique feature gives us an opportunity to design covalent blockers for Nck-SH2 by installing electrophiles at the pY+1 or pY+2 positions to enable a proximal conjugation reaction with one of the lysine residues. Covalent blockage through the characteristic lysine residues will maximize the specificity of the inhibitor toward Nck-SH2. As sulfonyl fluoride has been reported to react with proteinaceous nucleophiles such as lysine, histidine, or cysteine,[34] we installed a sulfonyl fluoride group on the side chain of diaminopropionic acid, giving an unnatural amino acid X1 at different positions such as pY+1 (Asp6) and pY+3 (Val8) of peptide EEHIpYDEVAAD. Besides the amino acid X1, we also included α-chloroacetyl-carrying amino acids X2 and X3, which may also react with proteineous nucleophiles. Electrophile-containing reactive peptides p1 to p11 were synthesized with a biotin tag at the N-termini (Figure 4b). After the reactive peptides were incubated with recombinant Nck protein at a 5:1 ratio at 37 °C in PBS for 1 h, the formation of covalently linked Nck–peptide conjugates could be observed, shown as new protein bands with molecular weights higher than that of Nck based on denatured SDS-PAGE and Western blotting analysis against biotin (Figure 4c). […] At 37 °C in PBS buffer, the 1:1 reaction efficiency reached 50% in 2 min (Figure S4 in the Supporting Information).
Figure 4 Covalently reactive peptides designed based on a Tir peptide. (a) Crystal structure of Nck-SH2 in complex with a peptide EEHIpYDEVAAD from EPEC protein Tir (PDB: 2CI9). (b) List of synthetic reactive peptides. (c) Unnatural amino acids in the peptides. (d) SDS-PAGE (top) and Western blotting (bottom) analyses showing covalent conjugation of the peptides with Nck. […]
In general terms: A western blot detects proteins with antibodies after separation by electrophoresis.

Take `CC[C@H](C)[C@H](NC(=O)[C@H](Cc1c[nH]cn1)NC(=O)[C@H](CCC(=O)O)NC(=O)[C@H](CCC(=O)O)NC(=O)CCCC[C@@H]1SC[C@@H]2NC(=O)N[C@@H]21)C(=O)N[C@@H](Cc1ccc(OP(=O)(O)O)cc1)C(=O)N[C@@H](CNC(=O)c1ccc(S(=O)(=O)F)cc1)C(=O)N[C@@H](CCC(=O)O)C(=O)N[C@H](C(=O)N[C@@H](C)C(=O)N[C@@H](C)C(=O)N[C@@H](CC(=O)O)C(N)=O)C(C)C` [p1] (Biotin-EEHI[pY][Dap](Benzoyl(4-SO2F))EVAAD-NH2; N-terminus and C-terminus assumed): at Nck [1], the “time to reach 50% reaction efficiency” value is 2 min. Also, the “number of Nck–peptide conjugate bands” value at Nck [2] (p1:Nck 5:1, 37 °C, SDS-PAGE) is listed as “only one Nck–peptide conjugate band”. The “reactivity with Nck” value at Nck [2] (peptide:Nck 5:1, 37 °C, SDS-PAGE and anti-biotin Western blotting) is reported as “highest cross-linking efficiency with Nck; also recorded: noticeable reactivity”.
